PMC5854716, “Synthesis, molecular docking, ctDNA interaction, DFT calculation and evaluation of antiproliferative and anti-Toxoplasma gondii activities of 2,4-diaminotriazine-thiazole derivatives” (Medicinal Chemistry Research, 2018)

Columns and labels:
VERO cells = test: Cell viability assay (MTT), VERO; assay type: cell-based, Cercopithecus aethiops; details: 24 h; for CC30 VERO: concentration for 30% proliferation inhibition
Method: (§1) The epithelial cell line VERO (ATCC-Catalog No. CCL-81^TM), derived from the kidney of the African green monkey, Cercopithecus aethiops and fibroblast cell line L-929 (ATCC-Catalog No. CCL-1^TM), derived from Mus musculus (http://www.atcc.org) were grown in Iscoves’s Modified Dulbecco’s Medium (IMDM) supplemented with 10% (v/v) fetal bovine serum (FBS), plus 2 mM L-glutamine, 100 U/ml penicillin, 100.00 µg/ml streptomycin, 5 × 10^−5 M 2-mercaptoethanol and maintained at 37 °C in a 10% CO2 atmosphere. Subcultures were performed via enzymatic cell dissociation in 0.25% trypsin. After dissociation, the cells were placed in culture medium at 4 °C with 10% FBS to inhibit the action of trypsin. The isolated cells were centrifuged for 10 min at 1000×g at 4 °C, and the cells were grown in new bottles. This procedure was repeated when cells reached a confluence of ~90%. All commercial reactants and solvents were purchased from either Sigma-Aldrich Laborchemikalien GmbH (Dzitko et al. [2014]).
(§2) Suspensions of the compounds 4a–l were freshly prepared (5 mg/ml DMSO) before the cells were exposed, and diluted to appropriate concentrations; 0.9, 1.8, 3.9, 7.8, 15.6, 31.2, 62.5, and 125.00 μg/ml with the culture medium. Cells treated with 2.5% DMSO-solvent served as a control in each experiment.
(§3) The effects of tested compounds on the viability of mouse fibroblasts L929 and […] VERO cells were evaluated using the MTT assay. The MTT assay was used according to international standards: ISO 10993-5:2009 (Tests for in vitro cytotoxicity; http://www.iso.org/iso/catalogue_detail.htm? csnumber = 36406). L929 and VERO cells were plated into 96-well plates at a density of 1.0 × 10^4/100 μl/well in culture medium and allowed to attach for 24 h before treatment. Afterwards, culture medium in the plates was replaced by 100 μl compounds suspension at concentration of 0–125 μg/ml and the cells were exposed for 24 h. Then 1 mg/ml MTT (50 μl/well) was added to each well and incubated at 37 °C, 10 % CO2 for 2 h. Mitochondrial dehydrogenases of viable cells reduce the yellowish water-soluble MTT to water-insoluble formazan crystals, which were solubilized with dimethyl sulfoxide (DMSO). The cell culture medium was aspirated cautiously, after which 150 μl DMSO was added to each well and mixed thoroughly. Optical density (OD) was read on the ELISA reader (Multiskan EX, Labsystems; http://www.mtxlsi.com/multiskan_EX.htm) at 550 nm. The results were expressed as percentage viability compared with the treated 2.5% DMSO controls. All experiments were performed in triplicate.

[1] = tested on: normal mouse fibroblast Balb/3T3 cells; test: In vitro cytotoxicity (SRB), Balb/3T3; assay type: cell-based; details: mean ± SD; for IC50: Mus musculus, BALB/3T3, 72 h exposure; for IC50 Balb/3T3: 72 h exposure
Method: Biphenotypic B myelomonocytic leukemia MV4-11, human lung carcinoma A549, human breast carcinoma MCF-7, and normal mouse fibroblast BALB/3T3 cells were obtained from American Type Culture Collection (Rockville, Maryland, USA). All the cell lines are being maintained at the Institute of Immunology and Experimental Therapy, Wroclaw, Poland. MV4-11 cells were cultured in RPMI 1640 medium (Gibco, UK) with 2 mM L-glutamine adjusted to contain 1.0 mM sodium pyruvate, and 10% fetal bovine serum (FBS) (all from Sigma-Aldrich, Germany). A549 cells were cultured in RPMI 1640+ Opti-MEM (1:1) (both from Gibco, UK), MCF-7 cells in Eagle medium (IIET, Wroclaw, Poland), BALB/3T3 in Dulbecco medium (IIET, Poland) supplemented with 2 mM L-glutamine and 1.0 mM sodium pyruvate, 10% fetal bovine serum (all from Sigma-Aldrich, Germany). The MCF-7 cell culture was supplemented with 0.8 mg/l of insulin (Sigma-Aldrich, Germany). All culture media were supplemented with 100 units/ml penicillin, and 100 µg/ml streptomycin (both from Polfa Tarchomin S.A., Poland). All cell lines were grown at 37 °C with 5% CO2 humidified atmosphere (Łączkowski et al. [2014], [2016a]). Prior to usage, the compounds were dissolved in DMSO and culture medium (1: 9) to the concentration of 1 mg/ml, and subsequently diluted in culture medium to reach the required concentrations (0.1, 1, 10, and 100 µg/ml) (Łączkowski et al. [2014], [2016a]). Twenty-four hours prior to the addition of the tested compounds, the cells counted using Burker hemocytometer were plated in 96-well plates (Sarstedt, Germany) at a density of 1 × 10^4 cells per well. The assay was performed after 72 h of exposure to varying concentrations of the tested agents. The in vitro cytotoxic effect of all agents was examined using the SRB assay for adherent cells (A549, MCF-7, and BALB/3T3) or MTT assay for leukemia cells (MV4-11) as described previously. […] Each compound in each concentration was tested in triplicate in a single experiment, which was repeated 3–7 times (Rubinstein et al. [1990]; Bramson et al. [1995]). Cells were attached to the bottom of plastic wells by fixing them with cold 50% TCA (trichloroacetic acid, POCH, Gliwice, Poland) on top of the culture medium in each well. The plates were incubated at 4 °C for 1 h and then washed five times with tap water. The cellular material fixed with TCA was stained with 0.1% sulforhodamine B (SRB, Sigma-Aldrich, Germany) and dissolved in 1% acetic acid (POCH, Gliwice, Poland) for 30 min. Unbound dye was removed by rinsing (4×) in 1% acetic acid. The protein-bound dye was extracted with 10 mM unbuffered Tris base (Sigma-Aldrich, Germany) for determination of the optical density (λ = 540 nm) in a computer-interfaced, 96-well Synergy H4 (BioTek Instruments USA) photometer microtiter plate reader (Sidoryk et al. [2012]).

mouse L929 fibroblast = test: Cell viability assay (MTT), L929; assay type: cell-based; details: 24 h; for CC30 L929: concentration for 30% proliferation inhibition
Method: as §1, §2, §3

C/C(=N\Nc1nc(-c2ccc(F)cc2)cs1)c1ccc(Nc2nc(N)nc(N)n2)cc1 [Compound 4a, (E)-N^2-(4-(1-(2-(4-(4-fluorophenyl)-1,3-thiazol-2-yl)hydrazinylidene)ethyl)phenyl)-1,3,5-triazine-2,4,6-triamine]
CC30 VERO (VERO cells): >125.0 µg/mL
IC50 [1]: 62.6 ± 8.69 µg/mL
CC30 L929 (mouse L929 fibroblast): >125.0 µg/mL

C/C(=N\Nc1nc(-c2ccc(Cl)cc2)cs1)c1ccc(Nc2nc(N)nc(N)n2)cc1 [Compound 4b, (E)-N^2-(4-(1-(2-(4-(4-chlorophenyl)-1,3-thiazol-2-yl)hydrazinylidene)ethyl)phenyl)-1,3,5-triazine-2,4,6-triamine]
CC30 VERO (VERO cells): >125.0 µg/mL
IC50 [1]: > 100 µg/mL
CC30 L929 (mouse L929 fibroblast): >125.0 µg/mL

C/C(=N\Nc1nc(-c2ccc(C)cc2)cs1)c1ccc(Nc2nc(N)nc(N)n2)cc1 [Compound 4c, (E)-N^2-(4-(1-(2-(4-(4-tolyl)-1,3-thiazol-2-yl)hydrazinylidene)ethyl)phenyl)-1,3,5-triazine-2,4,6-triamine]
CC30 VERO (VERO cells): >125.0 µg/mL
IC50 [1]: > 100 µg/mL
CC30 L929 (mouse L929 fibroblast): >125.0 µg/mL

C/C(=N\Nc1nc(-c2ccc(Br)cc2)cs1)c1ccc(Nc2nc(N)nc(N)n2)cc1 [Compound 4d, (E)-N^2-(4-(1-(2-(4-(4-bromophenyl)-1,3-thiazol-2-yl)hydrazinylidene)ethyl)phenyl)-1,3,5-triazine-2,4,6-triamine]
CC30 VERO (VERO cells): >125.0 µg/mL
IC50 [1]: 65.2 ± 24.5 µg/mL
CC30 L929 (mouse L929 fibroblast): >125.0 µg/mL

C/C(=N\Nc1nc(-c2ccc(I)cc2)cs1)c1ccc(Nc2nc(N)nc(N)n2)cc1 [Compound 4e, (E)-N^2-(4-(1-(2-(4-(4-iodophenyl)-1,3-thiazol-2-yl)hydrazinylidene)ethyl)phenyl)-1,3,5-triazine-2,4,6-triamine]
CC30 VERO (VERO cells): >125.0 µg/mL
IC50 [1]: > 100 µg/mL
CC30 L929 (mouse L929 fibroblast): >125.0 µg/mL

C/C(=N\Nc1nc(-c2cc3ccccc3oc2=O)cs1)c1ccc(Nc2nc(N)nc(N)n2)cc1 [Compound 4f, (E)-3-(2-(2-(1-(4-(4,6-diamino-1,3,5-triazin-2-yloamino)phenyl)ethylidene)hydrazinyl)thiazol-4-yl)-2H-chromen-2-on]
Viability VERO (VERO cells; 0.9 µg/ml): 97.81%
Viability VERO (VERO cells; 1.8 µg/ml): 100.84%
Viability VERO (VERO cells; 3.9 µg/ml): 104.30%
Viability VERO (VERO cells; 7.8 µg/ml): 104.39%
Viability VERO (VERO cells; 15.6 µg/ml): 108.19%
Viability VERO (VERO cells; 31.2 µg/ml): 117.52%
Viability VERO (VERO cells; 62.5 µg/ml): 103.77%
Viability VERO (VERO cells; 125.0 µg/ml): 111.27%
CC30 VERO (VERO cells): >125.0 µg/mL
IC50 Balb/3T3 [1]: >100 µg/mL
Viability L929 (mouse L929 fibroblast; 0.9 µg/ml): 98.99%
Viability L929 (mouse L929 fibroblast; 1.8 µg/ml): 102.21%
Viability L929 (mouse L929 fibroblast; 3.9 µg/ml): 101.95%
Viability L929 (mouse L929 fibroblast; 7.8 µg/ml): 96.25%
Viability L929 (mouse L929 fibroblast; 15.6 µg/ml): 100.89%
Viability L929 (mouse L929 fibroblast; 31.2 µg/ml): 104.60%
Viability L929 (mouse L929 fibroblast; 62.5 µg/ml): 109.54%
Viability L929 (mouse L929 fibroblast; 125.0 µg/ml): 108.66%
CC30 L929 (mouse L929 fibroblast): >125.0 µg/mL

CC(=O)Nc1ccc(-c2csc(N/N=C(\C)c3ccc(Nc4nc(N)nc(N)n4)cc3)n2)cc1 [Compound 4g, (E)-N^2-(4-(2-(2-(1-(4-(4,6-diamino-1,3,5-triazin-2-yloamino)phenyl)ethylidene)hydraziny)thiazol-4-yl)phenyl)-acetamide]
Viability VERO (VERO cells; 0.9 µg/ml): 93.72%
Viability VERO (VERO cells; 1.8 µg/ml): 90.59%
Viability VERO (VERO cells; 3.9 µg/ml): 95.35%
Viability VERO (VERO cells; 7.8 µg/ml): 98.14%
Viability VERO (VERO cells; 15.6 µg/ml): 98.43%
Viability VERO (VERO cells; 31.2 µg/ml): 98.96%
Viability VERO (VERO cells; 62.5 µg/ml): 94.25%
Viability VERO (VERO cells; 125.0 µg/ml): 91.41%
CC30 VERO (VERO cells): >125.0 µg/mL
IC50 Balb/3T3 [1]: >100 µg/mL
Viability L929 (mouse L929 fibroblast; 0.9 µg/ml): 102.34%
Viability L929 (mouse L929 fibroblast; 1.8 µg/ml): 102.12%
Viability L929 (mouse L929 fibroblast; 3.9 µg/ml): 100.36%
Viability L929 (mouse L929 fibroblast; 7.8 µg/ml): 98.86%
Viability L929 (mouse L929 fibroblast; 15.6 µg/ml): 94.31%
Viability L929 (mouse L929 fibroblast; 31.2 µg/ml): 99.83%
Viability L929 (mouse L929 fibroblast; 62.5 µg/ml): 103.01%
Viability L929 (mouse L929 fibroblast; 125.0 µg/ml): 105.39%
CC30 L929 (mouse L929 fibroblast): >125.0 µg/mL

C/C(=N\Nc1nc(-c2ccc([N+](=O)[O-])cc2)cs1)c1ccc(Nc2nc(N)nc(N)n2)cc1 [Compound 4h, (E)-N^2-(4-(1-(2-(4-(4-nitrophenyl)-1,3-thiazol-2-yl)hydrazinylidene)ethyl)phenyl)-1,3,5-triazine-2,4,6-triamine]
CC30 VERO (VERO cells): >125.0 µg/mL
IC50 [1]: > 100 µg/mL
CC30 L929 (mouse L929 fibroblast): >125.0 µg/mL

C/C(=N\Nc1nc(-c2ccc(Cl)c(Cl)c2)cs1)c1ccc(Nc2nc(N)nc(N)n2)cc1 [Compound 4i, (E)-N^2-(4-(1-(2-(4-(3,4-dichlorophenyl)-1,3-thiazol-2-yl)hydrazinylidene)ethyl)phenyl)-1,3,5-triazine-2,4,6-triamine]
CC30 VERO (VERO cells): >62.5 µg/mL
IC50 [1]: > 100 µg/mL
CC30 L929 (mouse L929 fibroblast): >62.5 µg/mL
